Tests used:
Nucleic Acid = assay: Ratio of drug level in brain to plasma in Sprague-Dawley rat at 10 mg/kg, po measured at 6 hrs; type: ADME, organism-based; parameters: dose 10 mg/kg, route oral
[1] = Plasma concentration in Sprague-Dawley rat at 10 mg/kg, po measured at 6 hrs by LC-MS/MS analysis; type: ADME, organism-based; parameters: dose 10 mg/kg, route oral
[2] = Drug uptake in Sprague-Dawley rat brain at 10 mg/kg, po measured at 6 hrs by LC-MS/MS analysis; type: ADME, organism-based; parameters: dose 10 mg/kg, route oral; conditions: read-out: Drug uptake
[3] = Dissociation constant, pKa of the compound; type: physicochemical

BPR (Nucleic Acid) | concentration at 6 h [1] [nM] | concentration at 6 h [2] [nM] | pKa [3] | SMILES
0.7 | 570 | 570 |  | NC1=N[C@@]2(c3cc(NC(=O)c4cnc(C(F)F)cn4)ccc3F)CO[C@H](CF)[C@H]2CS1
3.7 | 229 | 845 |  | NC1=N[C@@]2(c3cc(NC(=O)c4cnc(CF)cn4)ccc3F)CO[C@H](C(F)(F)F)[C@H]2CS1
 |  |  | 5.3 | COc1cccc(-c2cccc([C@@]3(c4ccncc4)N=C(N)N4CC(F)(F)CN=C43)c2)c1F
 |  |  | 6.5 | NC1=N[C@](c2ccc(OC(F)F)cc2)(c2cccc(OCCF)c2)C2=NCC(F)(F)CN12

Reference: ChEMBL document CHEMBL3259716, “The evolution of amidine-based brain penetrant BACE1 inhibitors” (Bioorg Med Chem Lett, 2014)
